Measured values taken from PubChem BioAssay (NCI).
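Each compound was tested at five concentrations against cells in 96-well plates for 48 hours. TGI denotes the concentration required for complete inhibition of growth.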

How the values were obtained:
Assay in all cases: DTP human tumour cell line panel, 48 h
SNB-19 CNS = system: SNB-19 CNS
OVCAR-8 ovarian = system: OVCAR-8 ovarian
NCI/ADR-RES ovarian = system: NCI/ADR-RES ovarian
OVCAR-3 ovarian = system: OVCAR-3 ovarian
SK-MEL-5 melanoma = system: SK-MEL-5 melanoma
NCI-H23 lung = system: NCI-H23 lung
MOLT-4 leukemia = system: MOLT-4 leukemia
OVCAR-5 ovarian = system: OVCAR-5 ovarian
TK-10 renal = system: TK-10 renal
COLO 205 colon = system: COLO 205 colon
EKVX NSCLC = system: EKVX NSCLC
HCT-15 colon = system: HCT-15 colon
M14 melanoma = system: M14 melanoma
SW-620 colon = system: SW-620 colon
MCF7 breast = system: MCF7 breast
NCI-H226 lung = system: NCI-H226 lung
MDA-N = system: MDA-N
HL-60(TB) leukemia = system: HL-60(TB) leukemia
MALME-3M melanoma = system: MALME-3M melanoma
RPMI-8226 leukemia = system: RPMI-8226 leukemia
HS 578T breast = system: HS 578T breast
786-0 renal = system: 786-0 renal
OVCAR-4 ovarian = system: OVCAR-4 ovarian
SK-MEL-28 melanoma = system: SK-MEL-28 melanoma
HCC-2998 colon = system: HCC-2998 colon
PC-3 prostate = system: PC-3 prostate
UACC-257 melanoma = system: UACC-257 melanoma
CCRF-CEM leukemia = system: CCRF-CEM leukemia
HOP-62 NSCLC = system: HOP-62 NSCLC
HOP-92 NSCLC = system: HOP-92 NSCLC
SF-295 CNS = system: SF-295 CNS
UO-31 renal = system: UO-31 renal
NCI-H522 lung = system: NCI-H522 lung
ACHN renal = system: ACHN renal
MDA-MB-231 breast = system: MDA-MB-231 breast
A549 NSCLC = system: A549 NSCLC
LOX IMVI melanoma = system: LOX IMVI melanoma
MDA-MB-435 = system: MDA-MB-435
NCI-H460 lung = system: NCI-H460 lung
SF-539 CNS = system: SF-539 CNS
T-47D breast = system: T-47D breast
SF-268 CNS = system: SF-268 CNS
DU-145 prostate = system: DU-145 prostate
SNB-75 CNS = system: SNB-75 CNS
IGROV1 ovarian = system: IGROV1 ovarian
CAKI-1 renal = system: CAKI-1 renal
HCT-116 colon = system: HCT-116 colon
UACC-62 melanoma = system: UACC-62 melanoma
K-562 leukemia = system: K-562 leukemia
SR leukemia = system: SR leukemia
KM12 colon = system: KM12 colon
SN12C renal = system: SN12C renal
RXF 393 renal = system: RXF 393 renal
SK-OV-3 ovarian = system: SK-OV-3 ovarian
HT29 colon = system: HT29 colon
SK-MEL-2 melanoma = system: SK-MEL-2 melanoma
A498 renal = system: A498 renal
U251 CNS = system: U251 CNS

Compound: COc1cccc(-c2cc(=O)c3cc(N4CCCC4)ccc3[nH]2)c1
- TGI (SNB-19 CNS): < 0.001 µM
- TGI (OVCAR-8 ovarian): 0.00128 µM
- TGI (NCI/ADR-RES ovarian): < 0.001 µM
- TGI (OVCAR-3 ovarian): < 0.001 µM
- TGI (SK-MEL-5 melanoma): 0.00747 µM
- TGI (NCI-H23 lung): 0.0962 µM
- TGI (MOLT-4 leukemia): > 10 µM
- TGI (OVCAR-5 ovarian): > 10 µM
- TGI (TK-10 renal): > 10 µM
- TGI (COLO 205 colon): < 0.001 µM
- TGI (EKVX NSCLC): > 10 µM
- TGI (HCT-15 colon): 0.00647 µM
- TGI (M14 melanoma): > 10 µM
- TGI (SW-620 colon): > 10 µM
- TGI (MCF7 breast): > 4.67 µM
- TGI (NCI-H226 lung): 0.00347 µM
- TGI (MDA-N): < 0.001 µM
- TGI (HL-60(TB) leukemia): < 0.001 µM
- TGI (MALME-3M melanoma): 9.53 µM
- TGI (RPMI-8226 leukemia): 2.44 µM
- TGI (HS 578T breast): > 10 µM
- TGI (786-0 renal): > 10 µM
- TGI (OVCAR-4 ovarian): > 10 µM
- TGI (SK-MEL-28 melanoma): > 10 µM
- TGI (HCC-2998 colon): 0.013 µM
- TGI (PC-3 prostate): > 10 µM
- TGI (UACC-257 melanoma): > 10 µM
- TGI (CCRF-CEM leukemia): > 10 µM
- TGI (HOP-62 NSCLC): > 10 µM
- TGI (HOP-92 NSCLC): > 10 µM
- TGI (SF-295 CNS): < 0.001 µM
- TGI (UO-31 renal): > 10 µM
- TGI (NCI-H522 lung): < 0.001 µM
- TGI (ACHN renal): > 10 µM
- TGI (MDA-MB-231 breast): 0.598 µM
- TGI (A549 NSCLC): > 10 µM
- TGI (LOX IMVI melanoma): 0.00131 µM
- TGI (MDA-MB-435): < 0.001 µM
- TGI (NCI-H460 lung): 1.42 µM
- TGI (SF-539 CNS): < 0.001 µM
- TGI (T-47D breast): > 10 µM
- TGI (SF-268 CNS): > 10 µM
- TGI (DU-145 prostate): < 0.001 µM
- TGI (SNB-75 CNS): > 10 µM
- TGI (IGROV1 ovarian): > 10 µM
- TGI (CAKI-1 renal): > 10 µM
- TGI (HCT-116 colon): 0.0348 µM
- TGI (UACC-62 melanoma): > 10 µM
- TGI (K-562 leukemia): > 8.09 µM
- TGI (SR leukemia): < 0.001 µM
- TGI (KM12 colon): 0.0111 µM
- TGI (SN12C renal): > 10 µM

Compound: CC(=O)OC[C@]12CCC3[C@@]4(C)CCCC(C)(C)C4CC[C@@]3(C)C1CC(C1=CC(=O)OC1O)O2 (stereo partly specified)
- TGI (OVCAR-8 ovarian): 3.52 µM
- TGI (SK-MEL-5 melanoma): 2.85 µM
- TGI (NCI-H23 lung): 3.8 µM
- TGI (MOLT-4 leukemia): 0.633 µM
- TGI (TK-10 renal): 3.2 µM
- TGI (RXF 393 renal): 1.55 µM
- TGI (COLO 205 colon): 5.67 µM
- TGI (EKVX NSCLC): 6.51 µM
- TGI (HCT-15 colon): 1.98 µM
- TGI (M14 melanoma): 3.07 µM
- TGI (SW-620 colon): 1.85 µM
- TGI (MCF7 breast): 2.97 µM
- TGI (MDA-N): 2.42 µM
- TGI (HL-60(TB) leukemia): 2.66 µM
- TGI (RPMI-8226 leukemia): 0.761 µM
- TGI (786-0 renal): 1.83 µM
- TGI (SK-MEL-28 melanoma): 2.19 µM
- TGI (HCC-2998 colon): 2.83 µM
- TGI (PC-3 prostate): 2.68 µM
- TGI (SK-OV-3 ovarian): 4.04 µM
- TGI (CCRF-CEM leukemia): 0.982 µM
- TGI (HOP-62 NSCLC): 3.9 µM
- TGI (MDA-MB-231 breast): 3.12 µM
- TGI (A549 NSCLC): 5.05 µM
- TGI (T-47D breast): 3.79 µM
- TGI (SF-268 CNS): 4.88 µM
- TGI (SNB-75 CNS): 3.91 µM
- TGI (IGROV1 ovarian): 2.95 µM
- TGI (CAKI-1 renal): 3.11 µM
- TGI (UACC-62 melanoma): 3.65 µM
- TGI (K-562 leukemia): 9.56 µM
- TGI (SR leukemia): 0.868 µM
- TGI (KM12 colon): 3.62 µM

Compound: CCCC(=O)OC1=C(c2ccccc2)Sc2ccccc2-n2cccc21
- TGI (OVCAR-8 ovarian): > 10 µM
- TGI (SK-MEL-5 melanoma): > 10 µM
- TGI (NCI-H23 lung): > 10 µM
- TGI (MOLT-4 leukemia): > 10 µM
- TGI (TK-10 renal): > 10 µM
- TGI (RXF 393 renal): > 10 µM
- TGI (COLO 205 colon): > 10 µM
- TGI (EKVX NSCLC): > 10 µM
- TGI (HCT-15 colon): > 10 µM
- TGI (M14 melanoma): > 10 µM
- TGI (SW-620 colon): > 10 µM
- TGI (MCF7 breast): > 10 µM
- TGI (MDA-N): > 10 µM
- TGI (HL-60(TB) leukemia): > 10 µM
- TGI (MALME-3M melanoma): > 10 µM
- TGI (HT29 colon): > 10 µM
- TGI (RPMI-8226 leukemia): > 10 µM
- TGI (786-0 renal): > 10 µM
- TGI (OVCAR-4 ovarian): > 10 µM
- TGI (SK-MEL-28 melanoma): > 10 µM
- TGI (HCC-2998 colon): > 10 µM
- TGI (PC-3 prostate): > 10 µM
- TGI (SK-OV-3 ovarian): > 10 µM
- TGI (UACC-257 melanoma): > 10 µM
- TGI (CCRF-CEM leukemia): > 10 µM
- TGI (HOP-62 NSCLC): > 10 µM
- TGI (HOP-92 NSCLC): > 10 µM
- TGI (SF-295 CNS): > 10 µM
- TGI (MDA-MB-231 breast): > 10 µM
- TGI (A549 NSCLC): > 10 µM
- TGI (LOX IMVI melanoma): > 10 µM
- TGI (MDA-MB-435): > 10 µM
- TGI (T-47D breast): > 10 µM
- TGI (SF-268 CNS): > 10 µM
- TGI (DU-145 prostate): > 10 µM
- TGI (SNB-75 CNS): > 10 µM
- TGI (IGROV1 ovarian): > 10 µM
- TGI (CAKI-1 renal): > 10 µM
- TGI (UACC-62 melanoma): > 10 µM
- TGI (K-562 leukemia): > 10 µM
- TGI (SR leukemia): > 10 µM
- TGI (KM12 colon): > 10 µM
- TGI (SN12C renal): > 10 µM

Compound: CC1CC/C(=C\c2ccc(F)cc2)C2=C1C(c1ccc(F)cc1)n1c(s/c(=C\c3ccc(Cl)cc3)c1=O)=N2 (stereo unspecified)
- TGI (SNB-19 CNS): > 100 µM
- TGI (OVCAR-8 ovarian): > 100 µM
- TGI (SK-MEL-5 melanoma): > 100 µM
- TGI (MOLT-4 leukemia): > 100 µM
- TGI (OVCAR-5 ovarian): > 100 µM
- TGI (TK-10 renal): > 100 µM
- TGI (RXF 393 renal): > 100 µM
- TGI (EKVX NSCLC): > 100 µM
- TGI (HCT-15 colon): > 100 µM
- TGI (M14 melanoma): > 100 µM
- TGI (SW-620 colon): > 100 µM
- TGI (MCF7 breast): > 100 µM
- TGI (MDA-N): > 100 µM
- TGI (SK-MEL-2 melanoma): > 100 µM
- TGI (HL-60(TB) leukemia): > 100 µM
- TGI (HT29 colon): > 100 µM
- TGI (RPMI-8226 leukemia): > 100 µM
- TGI (HS 578T breast): > 100 µM
- TGI (786-0 renal): > 100 µM
- TGI (OVCAR-4 ovarian): > 100 µM
- TGI (SK-MEL-28 melanoma): > 100 µM
- TGI (A498 renal): > 100 µM
- TGI (PC-3 prostate): > 100 µM
- TGI (SK-OV-3 ovarian): > 100 µM
- TGI (UACC-257 melanoma): > 100 µM
- TGI (CCRF-CEM leukemia): > 100 µM
- TGI (HOP-62 NSCLC): > 100 µM
- TGI (HOP-92 NSCLC): > 100 µM
- TGI (ACHN renal): > 100 µM
- TGI (MDA-MB-231 breast): > 100 µM
- TGI (A549 NSCLC): > 100 µM
- TGI (U251 CNS): > 100 µM
- TGI (LOX IMVI melanoma): > 100 µM
- TGI (MDA-MB-435): > 100 µM
- TGI (SF-268 CNS): > 100 µM
- TGI (DU-145 prostate): > 100 µM
- TGI (IGROV1 ovarian): > 100 µM
- TGI (CAKI-1 renal): > 100 µM
- TGI (HCT-116 colon): > 100 µM
- TGI (UACC-62 melanoma): > 100 µM
- TGI (K-562 leukemia): > 100 µM
- TGI (KM12 colon): > 100 µM
- TGI (SN12C renal): > 100 µM
